# Source: patent publication US7772271B2 (priority 2004, dated 2010)
row,SMILES,melting point
1,COCCOc1ccc2c(C#N)c(-c3ccc(NC(=O)OC(C)c4ccc(F)cc4)cc3)n(C(C)C)c2c1 (centres unmarked) [Compound 2687],89 to 112 °C
2,C[C@@H](OC(=O)Nc1ccc(-c2c(C#N)c3ccc(OCCCS(C)(=O)=O)cc3n2C2CCC2)cc1)C(F)(F)F [Compound 2958],206 to 208 °C
3,CCCS(=O)(=O)Nc1ccc(-c2c(C#N)c3ccc(-c4cc(C)ccn4)cc3n2C2CCC2)cc1 [Compound 2978],210 to 212 °C
4,N#Cc1c(-c2ccc(NS(=O)(=O)NCC3CC3)cc2)n(C2CC2)c2cc(Oc3nccnc3Cl)ccc12 [Compound 2949],181 to 183 °C
5,N#Cc1c(-c2ccc(NS(=O)(=O)C3CC3)cc2)n(CC2CCCO2)c2cc(OC(F)F)ccc12 (centres unmarked) [Compound 1335],179 to 180 °C
6,C[C@@H](OC(=O)Nc1ccc(-c2c(C#N)c3cc(OCCCn4cncn4)ccc3n2C2CCC2)cc1)c1ccccc1 [Compound 2734],206 to 208 °C
7,N#Cc1c(-c2ccc(N3CCCS3(=O)=O)cc2)n(C2CC2)c2cc(N3CCOCC3)ccc12 [Compound 2927],260 to 265 °C
8,CCn1c(-c2ccc(NC(=O)N3CCCCC3)cc2)c(C#N)c2ccc(OCCOC)cc21 [Compound 1380],216 to 218 °C
9,N#Cc1c(-c2ccc(NC(=O)OCC3CC3)cc2)n(C2CCC2)c2cc(OC3COCOC3)ccc12 [Compound 2860],197 to 198 °C
10,CC(C)OC(=O)Nc1ccc(-c2c(C#N)c3ccc(OC4CCN(Cc5ccccc5)C4)cc3n2C2CCC2)cc1 (centres unmarked) [Compound 1442],144 to 145 °C
11,Cc1nccnc1Oc1ccc2c(C#N)c(-c3ccc(NC(=O)O[C@H](C)C4CC4)cc3)n(C3CCC3)c2c1 [Compound 2909],201 to 202 °C
12,CC(OC(=O)Nc1ccc(-c2c(C#N)c3ccc(OC4CCOC4)cc3n2C2CC2)cc1)c1ccccc1 (centres unmarked) [Compound 1445],112 to 115 °C
13,CCC(C)NC(=O)c1ccc2c(C#N)c(-c3ccc(NS(=O)(=O)C4CC4)cc3)n(C3CCC3)c2c1 (centres unmarked) [Compound 2295],105 to 107 °C
14,COc1ccnc(Oc2ccc3c(C#N)c(-c4ccc(NS(=O)(=O)CC(C)C)cc4)n(C4CCC4)c3c2)n1 [Compound 2904],182 to 186 °C
15,CNS(=O)(=O)Nc1ccc(-c2c(C#N)c3ccc(OC4CCOCC4)cc3n2C2CCC2)cc1 [Compound 2833],218 to 220 °C
16,CC(C)NC(=O)Nc1ccc(-c2c(C#N)c3cc(Oc4ncccn4)ccc3n2C2CCC2)cc1 [Compound 2851],140 to 145 °C
17,N#Cc1c(-c2ccc(OC(=O)NC3CCCCC3)cc2)n(CC2CC2)c2cc(OC3CCOCC3)ccc12 [Compound 2785],158 to 160 °C
18,CC(C)CS(=O)(=O)Nc1ccc(-c2c(C#N)c3ccc(N4CCCCC4)cc3n2C2CCC2)cc1 [Compound 2982],198 to 202 °C

row,SMILES,melting point
1,C[C@@H](OC(=O)Nc1ccc(-c2c(C#N)c3ccc(Oc4nccc(C(F)(F)F)n4)cc3n2C2CCC2)cc1)C1CC1 [Compound 2924],119 to 121 °C
2,CCn1c(-c2ccc(NC(=O)C3CC3)cc2)c(C#N)c2ccc(OCCN(C)CCN(C)C)cc21 [Compound 1413],90.2 to 95.4 °C
3,CC(OC(=O)Nc1ccc(-c2c(C#N)c3ccc(OC4CCOCC4)cc3n2C2CCC2)cc1)C1CCC1 (centres unmarked) [Compound 2871],198 to 199 °C
4,N#Cc1c(-c2ccc(NS(=O)(=O)C3CC3)cc2)n(C2CCC2)c2cc(N3CCCCC3)ccc12 [Compound 2983],232 to 238 °C
5,COCCCNC(=O)c1ccc2c(C#N)c(-c3ccc(NC(=O)O[C@H](C)C4CC4)cc3)n(C3CCC3)c2c1 [Compound 2792],90 to 94 °C
6,N#Cc1c(-c2ccc(NS(=O)(=O)C3CCC3)cc2)n(C2CCC2)c2cc(C(=O)N3CCOCC3)ccc12 [Compound 2900],198 to 200 °C
7,C[C@@H](OC(=O)Nc1ccc(-c2c(C#N)c3ccc(N4CCCC4)cc3n2C2CCC2)cc1)C(F)(F)F [Compound 2961],246 to 249 °C
8,CCn1c(-c2ccc(NC(=O)NCCc3ccccc3)cc2)c(C#N)c2ccc(OCCOC)cc21 [Compound 1403],168 to 171 °C
9,CCn1c(-c2ccc(NS(=O)(=O)CC)cc2)c(C#N)c2ccc(C(=O)O)cc21 [Compound 1344],294 to 296 °C
10,CC(C)NC(=O)Nc1ccc(-c2c(C#N)c3ccc(OCCS(C)(=O)=O)cc3n2C2CCC2)cc1 [Compound 2873],170 to 180 °C
11,CC(C)OC(=O)Nc1ccc(-c2c(C#N)c3ccc(OCCNC4CCC4)cc3n2C2CCC2)cc1 [Compound 1434],221 to 223 °C
12,CC(C)OC(=O)Nc1ccc(-c2c(C#N)c3ccc(OCCSc4ncccn4)cc3n2C2CCC2)cc1 [Compound 2698],69 to 72 °C
13,CC(C)S(=O)(=O)Nc1ccc(-c2c(C#N)c3ccc(N4CCCCC4)cc3n2C2CCC2)cc1 [Compound 2968],233 to 235 °C
14,Cc1nccc(Oc2ccc3c(C#N)c(-c4ccc(NC(=O)O[C@H](C)C5CC5)cc4)n(C4CC4)c3c2)n1 [Compound 2715],123 to 125 °C
15,C[C@@H](OC(=O)Nc1ccc(-c2c(C#N)c3cc(N4CCOCC4)ccc3n2C2CCC2)cc1)C(F)(F)F [Compound 2832],197 to 202 °C
16,CCCS(=O)(=O)Nc1ccc(-c2c(C#N)c3ccc(Oc4cccnc4Cl)cc3n2C2CC2)cc1 [Compound 2936],209 to 210 °C
17,N#Cc1c(-c2ccc(NS(=O)(=O)C3CCC3)cc2)n(C2CCC2)c2cc(OC3COCOC3)ccc12 [Compound 2919],200 to 204 °C
18,N#Cc1c(-c2ccc(NC(=O)O[C@@H](c3ccccc3)C(F)(F)F)cc2)n(C2CCC2)c2cc(OCC3OCCO3)ccc12 [Compound 2805],174 to 175 °C

# Further lines, results first:
row,melting point,SMILES
1,135 to 140 °C,"CCOc1ccc2c(I)c(-c3ccc(NC(=O)OC(C)C)cc3)n(CC3CC3)c2c1 [compound 2634, [4-(1-cyclopropylmethyl-6-ethoxy-3-iodo-1H-indol-2-yl)-phenyl]-carbamic acid isopropyl ester]"
2,167 to 169 °C,CN(C(=O)Oc1ccc(-c2c(C#N)c3ccc(OC4CCOCC4)cc3n2C2CCC2)cc1)c1ccccc1 [Compound 3112]
3,120 °C (dec.),C[C@@H](OC(=O)Nc1ccc(-c2c(C#N)c3ccc(-c4cn(C)cn4)cc3n2C2CCC2)cc1)C1CC1 [Compound 3048]
4,180 to 187 °C,N#Cc1c(-c2ccc(N3CCCCS3(=O)=O)cc2)n(C2CCC2)c2cc(OC3CCOCC3)ccc12 [Compound 3218]
5,212 to 223 °C,N#Cc1c(-c2ccc(N3CCCCS3(=O)=O)cc2)n(C2CCC2)c2cc(Oc3ncccn3)ccc12 [Compound 3217]
6,137 to 138 °C,N#Cc1c(-c2ccc(NC(=S)NC3CCCC3)cc2)n(C2CCC2)c2cc(OC3CCOCC3)ccc12 [Compound 3157]
7,136 to 138 °C,N#Cc1c(-c2ccc(NC3=NC(O)(C(F)(F)F)CS3)cc2)n(C2CCC2)c2cc(OC3CCOCC3)ccc12 (centres unmarked) [Compound 3150]
8,172 to 177 °C,CSc1nccc(Oc2ccc3c(C#N)c(-c4ccc(NC(=O)O[C@H](C)C5CC5)cc4)n(C4CCC4)c3c2)n1 [Compound 3089]
9,245 to 249 °C,"CC(C)OC(=O)Nc1ccc(-c2c(C#N)c3ccc(OC4CCS(=O)(=O)CC4)cc3n2C2CCC2)cc1 [compound 3182, {4-[3-cyano-1-cyclobutyl-6-(1,1-dioxo-hexahydro-1λ^6-thiopyran-4-yloxy)-1H-indol-2-yl]-phenyl}-carbamic acid isopropyl ester]"
10,79 to 81 °C,C[C@@H](OC(=O)Nc1ccc(-c2c(C#N)c3ccc(OCCN4C(=O)CN(C)C4=O)cc3n2C2CCC2)cc1)C1CC1 [Compound 3272]
11,129 to 130 °C,CC(C)NC(=S)Nc1ccc(-c2c(C#N)c3ccc(OC4CCOCC4)cc3n2C2CCC2)cc1 [Compound 3158]
12,116 to 118 °C,N#Cc1c(-c2ccc(Nc3nc(C(F)(F)F)cs3)cc2)n(C2CCC2)c2cc(OCCF)ccc12 [Compound 3207]
13,159 to 162 °C,C[C@@H](OC(=O)Nc1ccc(-c2c(C#N)c3ccc(OCCN4CCCC4=O)cc3n2C2CCC2)cc1)C1CC1 [Compound 3266]
14,205 to 212 °C,CCc1cnc(Oc2ccc3c(C#N)c(-c4ccc(NC(=O)O[C@H](C)C5CC5)cc4Cl)n(C4CCC4)c3c2)nc1 [Compound 3060]
15,290 to 291 °C,Cc1cccn(-c2ccc3c(C#N)c(-c4ccc(NS(=O)(=O)CC(C)C)cc4)n(C4CCC4)c3c2)c1=O [Compound 3340]
16,207 to 211 °C,CCOc1ccc2c(C#N)c(-c3ccc(NC(=O)OC4CCN(C(=O)OC(C)(C)C)CC4)cc3)n(C3CCC3)c2c1 [Compound 3069]
17,87 to 88 °C,"CS(=O)(=O)Nc1ccc(-c2c(C#N)c3ccc(OC(F)F)cc3n2CC2CCCO2)cc1 (centres unmarked) [compound 1334, N-{4-[3-cyano-6-difluoromethoxy-1-(tetrahydro-furan-2-ylmethyl)-1H-indole-2-yl]-phenyl}-methanesulfonamide]"
18,199 to 203 °C,"CCOc1ccc2c(C#N)c(-c3ccc(NC(=O)NCCO)cc3)n(C3CCC3)c2c1 [compound 1408, 1-[4-(3-cyano-1-cyclobutyl-6-ethoxy-1H-indol-2-yl)-phenyl]-3-(2-hydroxy-ethyl)-urea]"
19,266 to 267.5 °C,Cc1cccn(-c2ccc3c(C#N)c(-c4ccc(NC(=O)NC(C)C)cc4)n(C4CCC4)c3c2)c1=O [Compound 3342]
20,135 to 140 °C,"CC(OC(=O)Nc1ccc(-c2c(C#N)c3ccc(OCCS(C)(=O)=O)cc3n2C2CCC2)cc1)C1CC1 (centres unmarked) [compound 2695, {4-[3-Cyano-1-cyclobutyl-6-(2-methanesulfonyl-ethoxy)-1H-indol-2-yl]-phenyl}-carbamic acid 1-cyclopropyl-ethyl ester]"
21,210 to 212 °C,N#Cc1c(-c2ccc(Nc3cccnc3)cc2)n(C2CCC2)c2cc(OC3CCOCC3)ccc12 [Compound 3165]
22,240 to 246 °C,N#Cc1c(-c2ccc(NC(=O)OC3CCS(=O)(=O)CC3)cc2)n(C2CC2)c2cc(Oc3ncccn3)ccc12 [Compound 3269]
23,84 to 94 °C,C[C@@H](OC(=O)Nc1ccc(-c2c(C#N)c3ccc(-c4ccccn4)cc3n2C2CCC2)cc1Cl)C(F)(F)F [Compound 2994]
